Measured values taken from paper PMC5218480 (PLoS ONE, 2017).

System: MV-4-11 cells
Assay: Gene expression microarray analysis (Affymetrix PrimeView) and GSEA
Format: cell-based, human
Parameters: RFU PODN (11730768_x_at) / Fold change /veh PODN (11730768_x_at) / RFU LINC00158 (11744669_a_at) / Fold change /veh LINC00158 (11744669_a_at) / RFU DUSP10 (11751237_a_at) / Fold change /veh DUSP10 (11751237_a_at) / RFU ID3 (11757404_x_at) / Fold change /veh ID3 (11757404_x_at) / RFU PLEKHG5 (11737974_s_at) / Fold change /veh PLEKHG5 (11737974_s_at) / RFU LRRC4B (11730491_at) / Fold change /veh LRRC4B (11730491_at) / RFU GIMAP4 (11747438_a_at) / Fold change /veh GIMAP4 (11747438_a_at) / RFU KRT8 (11758183_x_at) / Fold change /veh KRT8 (11758183_x_at) / RFU CNN1 (11734310_a_at) / Fold change /veh CNN1 (11734310_a_at) / RFU VPS37D (11726825_at) / Fold change /veh VPS37D (11726825_at) / RFU C10orf10 (11716522_x_at) / Fold change /veh C10orf10 (11716522_x_at) / RFU KIR2DL2 /// KIR2DL4 /// KIR2DL5A /// KIR2DL5B /// KIR2DS1 /// KIR2DS2 /// KIR2DS3 /// KIR2DS4 /// KIR3DL3 /// KIR3DL3 /// KIR3DS1 (11738374_at) / Fold change /veh KIR2DL2 /// KIR2DL4 /// KIR2DL5A /// KIR2DL5B /// KIR2DS1 /// KIR2DS2 /// KIR2DS3 /// KIR2DS4 /// KIR3DL3 /// KIR3DL3 /// KIR3DS1 (11738374_at) / RFU C1QL1 (11718748_at) / Fold change /veh C1QL1 (11718748_at) / RFU TMPRSS4 (11747572_a_at) / Fold change /veh TMPRSS4 (11747572_a_at) / RFU HAMP (11756126_x_at) / Fold change /veh HAMP (11756126_x_at) / RFU RNFT2 (11725882_a_at) / Fold change /veh RNFT2 (11725882_a_at) / RFU NR4A2 (11747474_a_at) / Fold change /veh NR4A2 (11747474_a_at) / RFU ABCC12 (11746883_a_at) / Fold change /veh ABCC12 (11746883_a_at) / RFU TMEM136 (11760407_x_at) / Fold change /veh TMEM136 (11760407_x_at) / RFU CLDN22 /// WWC2 (11732394_at) / Fold change /veh CLDN22 /// WWC2 (11732394_at) / RFU HLA-DPB1 (11760878_x_at) / Fold change /veh HLA-DPB1 (11760878_x_at) / RFU SPINT1 (11716480_a_at) / Fold change /veh SPINT1 (11716480_a_at) / RFU GAP43 (11754022_s_at) / Fold change /veh GAP43 (11754022_s_at) / RFU A4GNT (11735810_at) / Fold change /veh A4GNT (11735810_at) / RFU PRB3 (11715151_x_at) / Fold change /veh PRB3 (11715151_x_at) / RFU TUBB4B (11761932_at) / Fold change /veh TUBB4B (11761932_at) / RFU CAPN14 (11732068_a_at) / Fold change /veh CAPN14 (11732068_a_at) / RFU TMCC2 (11721928_a_at) / Fold change /veh TMCC2 (11721928_a_at) / RFU IRGQ (11745062_a_at) / Fold change /veh IRGQ (11745062_a_at) / RFU FAM174B (11720279_a_at) / Fold change /veh FAM174B (11720279_a_at) / RFU TMPRSS4 (11748680_a_at) / Fold change /veh TMPRSS4 (11748680_a_at) / RFU FAM212B (11763350_a_at) / Fold change /veh FAM212B (11763350_a_at) / RFU PLEKHG5 (11743358_a_at) / Fold change /veh PLEKHG5 (11743358_a_at) / RFU ZSCAN30 (11745921_a_at) / Fold change /veh ZSCAN30 (11745921_a_at) / RFU CMKLR1 (11741424_a_at) / Fold change /veh CMKLR1 (11741424_a_at) / RFU LOC101060620 /// MAPK8IP1 (11723275_at) / Fold change /veh LOC101060620 /// MAPK8IP1 (11723275_at) / RFU SPTSSB (11747773_x_at) / Fold change /veh SPTSSB (11747773_x_at) / RFU PRSS12 (11739890_at) / Fold change /veh PRSS12 (11739890_at) / RFU BIN1 (11741810_x_at) / Fold change /veh BIN1 (11741810_x_at) / RFU WNT11 (11732464_a_at) / Fold change /veh WNT11 (11732464_a_at) / RFU C10orf10 (11716521_a_at) / Fold change /veh C10orf10 (11716521_a_at) / RFU C5orf56 (11738089_at) / Fold change /veh C5orf56 (11738089_at) / RFU CYB561 (11721691_x_at) / Fold change /veh CYB561 (11721691_x_at) / RFU ANKRD19P (11752326_a_at) / Fold change /veh ANKRD19P (11752326_a_at) / RFU OR2T12 /// OR2T33 /// OR2T8 (11738714_s_at) / Fold change /veh OR2T12 /// OR2T33 /// OR2T8 (11738714_s_at) / RFU VCAN (11748164_a_at) / Fold change /veh VCAN (11748164_a_at) / RFU JSRP1 (11732532_at) / Fold change /veh JSRP1 (11732532_at) / RFU KRTAP10-11 (11738290_x_at) / Fold change /veh KRTAP10-11 (11738290_x_at) / RFU MYO3A (11730013_a_at) / Fold change /veh MYO3A (11730013_a_at) / RFU EBF3 (11725865_a_at) / Fold change /veh EBF3 (11725865_a_at) / RFU CAMK2N1 (11719241_x_at) / Fold change /veh CAMK2N1 (11719241_x_at) / RFU C5orf56 (11738088_a_at) / Fold change /veh C5orf56 (11738088_a_at) / RFU OLFML3 (11715873_a_at) / Fold change /veh OLFML3 (11715873_a_at) / RFU LOC100653217 /// NTM (11731650_a_at) / Fold change /veh LOC100653217 /// NTM (11731650_a_at) / RFU MAPK11 (11762145_a_at) / Fold change /veh MAPK11 (11762145_a_at) / RFU FIZ1 (11724087_x_at) / Fold change /veh FIZ1 (11724087_x_at) / RFU OASL (11726364_x_at) / Fold change /veh OASL (11726364_x_at) / RFU SOX15 (11748057_x_at) / Fold change /veh SOX15 (11748057_x_at) / RFU CD79A (11719716_a_at) / Fold change /veh CD79A (11719716_a_at) / RFU HIST1H1D (11736915_at) / Fold change /veh HIST1H1D (11736915_at) / RFU CASKIN2 (11723855_a_at) / Fold change /veh CASKIN2 (11723855_a_at) / RFU LOC730098 (11760151_x_at) / Fold change /veh LOC730098 (11760151_x_at) / RFU OR4N2 (11742367_at) / Fold change /veh OR4N2 (11742367_at) / RFU PRRT2 (11749266_a_at) / Fold change /veh PRRT2 (11749266_a_at) / RFU SNX32 (11753110_a_at) / Fold change /veh SNX32 (11753110_a_at) / RFU CDHR5 (11726645_a_at) / Fold change /veh CDHR5 (11726645_a_at) / RFU RCAN1 (11760418_a_at) / Fold change /veh RCAN1 (11760418_a_at) / RFU FAM167A (11723789_a_at) / Fold change /veh FAM167A (11723789_a_at) / RFU FAM26E (11764081_at) / Fold change /veh FAM26E (11764081_at) / RFU ISYNA1 (11749810_s_at) / Fold change /veh ISYNA1 (11749810_s_at) / RFU ACY1 (11761880_at) / Fold change /veh ACY1 (11761880_at) / RFU 11764098_at / Fold change /veh 11764098_at / RFU SAMD14 (11745864_x_at) / Fold change /veh SAMD14 (11745864_x_at) / RFU NPB (11741838_a_at) / Fold change /veh NPB (11741838_a_at) / RFU TMPRSS6 (11731388_a_at) / Fold change /veh TMPRSS6 (11731388_a_at) / RFU KRTAP10-2 (11738614_at) / Fold change /veh KRTAP10-2 (11738614_at) / RFU ARHGAP8 /// PRR5-ARHGAP8 (11727945_x_at) / Fold change /veh ARHGAP8 /// PRR5-ARHGAP8 (11727945_x_at) / RFU KRTAP5-7 /// NADSYN1 (11734609_at) / Fold change /veh KRTAP5-7 /// NADSYN1 (11734609_at) / RFU RASL12 (11751679_a_at) / Fold change /veh RASL12 (11751679_a_at) / RFU CDKN2B (11736163_a_at) / Fold change /veh CDKN2B (11736163_a_at) / RFU PRF1 (11729649_at) / Fold change /veh PRF1 (11729649_at) / RFU, ZNF638 /// ZNF638-IT1 / Fold change vs veh, ZNF638 /// ZNF638-IT1 / RFU, PANK3 / Fold change vs veh, PANK3 / RFU, SH3YL1 / Fold change vs veh, SH3YL1 / RFU, ZEB2 / Fold change vs veh, ZEB2 / RFU, NRIP1 / Fold change vs veh, NRIP1 / RFU, PTTG1IP / Fold change vs veh, PTTG1IP / RFU, CAPN2 / Fold change vs veh, CAPN2 / RFU, MED14 / Fold change vs veh, MED14 / RFU, SNORA58 / Fold change vs veh, SNORA58 / RFU, C1orf63 / Fold change vs veh, C1orf63 / RFU, LRRFIP1 / Fold change vs veh, LRRFIP1 / RFU, NDUFAF7 / Fold change vs veh, NDUFAF7 / RFU, SLC12A2 / Fold change vs veh, SLC12A2 / RFU, IBTK / Fold change vs veh, IBTK / RFU, ESF1 / Fold change vs veh, ESF1 / Fold change vs veh, TMEM50B / RFU, TAOK1 / Fold change vs veh, TAOK1 / RFU, ACBD3 / Fold change vs veh, ACBD3 / RFU, TMA16 / Fold change vs veh, TMA16 / RFU, RWDD3 / Fold change vs veh, RWDD3 / RFU, BCAT1 / Fold change vs veh, BCAT1 / RFU, EDEM3 / Fold change vs veh, EDEM3 / RFU, TMEM33 / Fold change vs veh, TMEM33 / RFU, WDR75 / Fold change vs veh, WDR75 / RFU, AHCTF1 / Fold change vs veh, AHCTF1 / RFU, TFRC / Fold change vs veh, TFRC / RFU, ZDHHC17 / Fold change vs veh, ZDHHC17 / RFU, NOM1 / Fold change vs veh, NOM1 / RFU, ARL8B / Fold change vs veh, ARL8B / RFU, ZBTB11 / Fold change vs veh, ZBTB11 / RFU, TAMM41 / Fold change vs veh, TAMM41 / RFU, KIAA1704 /// LOC100996395 / Fold change vs veh, KIAA1704 /// LOC100996395 / RFU, ING1 / Fold change vs veh, ING1 / RFU, TRMT61B / Fold change vs veh, TRMT61B / RFU, FUBP3 / Fold change vs veh, FUBP3 / RFU, TP53 / Fold change vs veh, TP53 / RFU, TNKS2 / Fold change vs veh, TNKS2 / RFU, ZFP14 / Fold change vs veh, ZFP14 / RFU, ACTR2 / Fold change vs veh, ACTR2 / RFU, PPP3R1 / Fold change vs veh, PPP3R1 / RFU, PIK3R1 / Fold change vs veh, PIK3R1 / RFU, HNRNPA1 / Fold change vs veh, HNRNPA1 / RFU, RNF170 / Fold change vs veh, RNF170 / RFU, ZNF28 / Fold change vs veh, ZNF28 / RFU, RNGTT / Fold change vs veh, RNGTT / RFU, OGT / Fold change vs veh, OGT / RFU, BRD1 / Fold change vs veh, BRD1 / RFU, MARS / Fold change vs veh, MARS / RFU, ZNF655 / Fold change vs veh, ZNF655 / RFU, FAHD1 / Fold change vs veh, FAHD1 / RFU, BDP1 / Fold change vs veh, BDP1 / RFU, LRRCC1 / Fold change vs veh, LRRCC1 / RFU, ARID1A / Fold change vs veh, ARID1A / RFU, ZNF146 / Fold change vs veh, ZNF146 / RFU, ZNF330 / Fold change vs veh, ZNF330 / RFU, GPN3 / Fold change vs veh, GPN3 / RFU, C9orf123 / Fold change vs veh, C9orf123 / RFU, N4BP2L2 / Fold change vs veh, N4BP2L2 / RFU, ARFIP1 / Fold change vs veh, ARFIP1 / RFU, FAM179B / Fold change vs veh, FAM179B / RFU, BCL10 / Fold change vs veh, BCL10 / RFU, UHRF1BP1L / Fold change vs veh, UHRF1BP1L / RFU, BET1 / Fold change vs veh, BET1 / RFU, CNOT2 / Fold change vs veh, CNOT2 / RFU, ZNF268 / Fold change vs veh, ZNF268 / Fold change vs veh, ZNF507 / RFU, DGCR2 / Fold change vs veh, DGCR2 / RFU, WDSUB1 / Fold change vs veh, WDSUB1 / Fold change vs veh, HSP90B1 /// MIR3652 / RFU, ADSS / Fold change vs veh, ADSS / RFU, GK / Fold change vs veh, GK / RFU, ZNF148 / Fold change vs veh, ZNF148 / RFU, TAF9 / Fold change vs veh, TAF9 / RFU, SLC1A5 / Fold change vs veh, SLC1A5 / RFU, SLMO2 / Fold change vs veh, SLMO2 / RFU, ABCC4 / Fold change vs veh, ABCC4 / RFU, LOC101060439 /// RAP1B / Fold change vs veh, LOC101060439 /// RAP1B / RFU, RFX7 / Fold change vs veh, RFX7 / RFU, GTPBP10 / Fold change vs veh, GTPBP10 / RFU, CNEP1R1 / Fold change vs veh, CNEP1R1 / RFU, BIVM-ERCC5 /// ERCC5 / Fold change vs veh, BIVM-ERCC5 /// ERCC5 / RFU, ILF3 / Fold change vs veh, ILF3 / RFU 11762660_at / Fold change /veh 11762660_at / RFU VCAN (11757783_s_at) / Fold change /veh VCAN (11757783_s_at) / RFU DDX43 (11728927_at) / Fold change /veh DDX43 (11728927_at) / RFU KRT8 (11758188_x_at) / Fold change /veh KRT8 (11758188_x_at) / RFU NKD1 (11759106_at) / Fold change /veh NKD1 (11759106_at) / RFU SRD5A1 (11742802_a_at) / Fold change /veh SRD5A1 (11742802_a_at) / RFU TPSAB1 /// TPSB2 (11721975_s_at) / Fold change /veh TPSAB1 /// TPSB2 (11721975_s_at) / RFU GSTM3 (11746129_a_at) / Fold change /veh GSTM3 (11746129_a_at) / RFU IL23R (11737362_x_at) / Fold change /veh IL23R (11737362_x_at) / RFU TMEM51 (11727254_a_at) / Fold change /veh TMEM51 (11727254_a_at) / RFU PIWIL2 (11732686_x_at) / Fold change /veh PIWIL2 (11732686_x_at) / RFU ORM1 (11744905_x_at) / Fold change /veh ORM1 (11744905_x_at) / RFU CCDC152 (11743942_at) / Fold change /veh CCDC152 (11743942_at) / RFU ECM1 (11717891_a_at) / Fold change /veh ECM1 (11717891_a_at) / RFU IL23R (11748794_a_at) / Fold change /veh IL23R (11748794_a_at) / RFU TNFAIP8L3 (11732012_x_at) / Fold change /veh TNFAIP8L3 (11732012_x_at) / RFU MBOAT4 (11741988_at) / Fold change /veh MBOAT4 (11741988_at) / RFU 11764193_at / Fold change /veh 11764193_at / RFU TMEM53 (11763286_at) / Fold change /veh TMEM53 (11763286_at) / RFU MAGEB2 (11727129_at) / Fold change /veh MAGEB2 (11727129_at) / RFU TMEM200A (11744735_a_at) / Fold change /veh TMEM200A (11744735_a_at) / RFU CCDC152 (11751479_a_at) / Fold change /veh CCDC152 (11751479_a_at) / RFU FAM211A (11726209_a_at) / Fold change /veh FAM211A (11726209_a_at) / RFU RGS16 (11746705_a_at) / Fold change /veh RGS16 (11746705_a_at) / RFU VCAN (11755009_s_at) / Fold change /veh VCAN (11755009_s_at) / RFU RHOB (11743442_s_at) / Fold change /veh RHOB (11743442_s_at) / RFU RGS16 (11720943_a_at) / Fold change /veh RGS16 (11720943_a_at) / RFU RGS16 (11720944_at) / Fold change /veh RGS16 (11720944_at) / RFU, VPS4B / Fold change vs veh, VPS4B / RFU, CREB1 / Fold change vs veh, CREB1 / RFU, DNAJC13 / Fold change vs veh, DNAJC13 / RFU, GNAQ / Fold change vs veh, GNAQ / RFU, CDK5R1 / Fold change vs veh, CDK5R1 / RFU, ZRANB3 / Fold change vs veh, ZRANB3 / RFU, CUL4A / Fold change vs veh, CUL4A / RFU, CCNY / Fold change vs veh, CCNY / RFU, UFL1 / Fold change vs veh, UFL1 / RFU, COG3 / Fold change vs veh, COG3 / RFU, DIAPH2 / Fold change vs veh, DIAPH2 / RFU, SKA2 / Fold change vs veh, SKA2 / RFU, AFF3 / Fold change vs veh, AFF3 / RFU, LMF1 / Fold change vs veh, LMF1 / RFU, IPO11 / Fold change vs veh, IPO11 / RFU, DFFB / Fold change vs veh, DFFB / RFU, FOXP1 / Fold change vs veh, FOXP1 / RFU, CARD8 / Fold change vs veh, CARD8 / RFU, STRN3 / Fold change vs veh, STRN3 / RFU, ADK / Fold change vs veh, ADK / RFU, RASSF2 / Fold change vs veh, RASSF2 / RFU, WIPF1 / Fold change vs veh, WIPF1 / RFU, LARP1B / Fold change vs veh, LARP1B / RFU, RASA1 / Fold change vs veh, RASA1 / RFU, RB1 / Fold change vs veh, RB1 / RFU, PPFIA1 / Fold change vs veh, PPFIA1 / RFU, MAT2A / Fold change vs veh, MAT2A / RFU, CCT5 / Fold change vs veh, CCT5 / RFU, WDR92 / Fold change vs veh, WDR92 / RFU, CUX1 / Fold change vs veh, CUX1 / RFU, TTC7A / Fold change vs veh, TTC7A / RFU, TMEM135 / Fold change vs veh, TMEM135 / RFU, DEPTOR / Fold change vs veh, DEPTOR / RFU, CPM / Fold change vs veh, CPM / RFU, DNAJB6 / Fold change vs veh, DNAJB6 / RFU, CACNA2D3 / Fold change vs veh, CACNA2D3 / RFU, DTX4 / Fold change vs veh, DTX4 / RFU, TFCP2 / Fold change vs veh, TFCP2 / RFU, GMCL1 /// GMCL1P1 / Fold change vs veh, GMCL1 /// GMCL1P1 / RFU, AEBP2 / Fold change vs veh, AEBP2 / RFU, SNHG1 /// SNORD22 /// SNORD25 /// SNORD26 /// SNORD27 /// SNORD28 /// SNORD29 /// SNORD31 / Fold change vs veh, SNHG1 /// SNORD22 /// SNORD25 /// SNORD26 /// SNORD27 /// SNORD28 /// SNORD29 /// SNORD31 / Fold change (Aza/veh), C12orf56 (ProbeSet 11735607_a_at) / Fold change (ACY-1035/veh), C12orf56 (ProbeSet 11735607_a_at) / Fold change (Aza/veh), FGFR1OP (ProbeSet 11751329_s_at) / Fold change (ACY-1035/veh), FGFR1OP (ProbeSet 11751329_s_at) / Fold change (Aza/veh), VPS36 (ProbeSet 11739960_a_at) / Fold change (ACY-1035/veh), VPS36 (ProbeSet 11739960_a_at) / RFU SYPL1 (11715823_x_at) / Fold change /veh SYPL1 (11715823_x_at) / RFU IGFBP7 (11715501_s_at) / Fold change /veh IGFBP7 (11715501_s_at) / RFU REEP3 (11722064_at) / Fold change /veh REEP3 (11722064_at) / RFU IGLL1 (11728026_x_at) / Fold change /veh IGLL1 (11728026_x_at): dose or concentration left out as unconfirmed
Conditions: ProbeSet 11747937_a_at; LIST D

SMILES: Nc1ncn([C@@H]2O[C@H](CO)[C@@H](O)[C@H]2O)c(=O)n1 [azacitidine]
- Fold change vs veh, DNAJB6: 0.52
